Data on three substances can be found in patent publication US5147856A, “Method for inhibiting blood vessel blockage using octapeptide compositions” (Societe de Conseils de Recherches et d'Applications …, priority 1988, dated 1992).

Square brackets hold non-standard residues; d marks the D form. Mpa = O=C(O)CCS

For one assay, the system named is growth hormone release. The following applies: cited from earlier work; for Potency for growth hormone suppression in vivo, relative to somatostatin 14: rats, compared to somatostatin 14 (=1).
Assay [1] concerns myointimal proliferation of the carotid artery. Description: Air-drying injury of the rat carotid artery, intimal/media ratio (Example 2). The class given is in vivo. The following applies: for Intimal/Media Ratio: from two days prior to injury and five days postinjury, sacrifice day 15, mean ± SE; for Inhibition of myointimal (smooth muscle cell) proliferation of the carotid artery, in words: administered from two days prior to injury, at the doses used (20 and 50 μg/kg/day). Here is the method: Male Sprague-Dawley rats, weighing […], obtained from Charles River were kept under controlled lighting conditions and fed rat chow and water ad libitum. Under sodium pentobarbital anesthesia the intima of the right carotid artery was subjected to an air-drying injury described by Fishman et al, Lab Invest., 32, 339 (1975). The procedure causes intimal hyperplasia that largely consists of proliferating intimal smooth muscle cells. In this model approximately 4 cm of the vessel is isolated and drained of blood. Air (20 ml/min) is blown through a 30 gauge needle for 5 min whereafter blood flow is reestablished. The contralateral carotid artery was also exposed but not air-dried. The rats were sacrificed 15 days later.
The experiment consisted of a control group and ten treatment groups. The somatostatin analogs used were hepta- or octapeptides, namely BIM 23014 (Angiopeptin), BIM 23012, BIM 23027, BIM 23030 and BIM 23034. […] The animals were pretreated two days prior to the procedure and for a further five days following the endothelial injury. Two additional groups of animals were added in order to study whether Angiopeptin (20 μg/kg/day and 50 μg/kg/day) administered 30 min prior to the endothelial injury and for a further five days would protect against the myointimal proliferation.
The animals were sacrificed on day 15 following the injury by exsanguination. The vascular system was flushed with normal saline and perfusion-fixed at 80 mmHg with 10% formalin. The carotid arteries were subsequently fixed, embedded and sectioned for light microscopy and morphometric analysis. The maximal intimal/media ratio is the distance from the lumen to the internal elastic lamina and the distance from the internal elastic lamina to the external elastic lamina. The distances were determined in each vessel using a digitizing system attached to a light microscope. The determinations were performed on three different cross sections of the vessel and each section was measured three times. The mean was calculated for each vessel. Differences between the groups were evaluated using Student's unpaired t-test.

The mark [2] stands for this setting: 20 μg/kg/day s.c. in two divided doses.
Where [3] appears, read: 50 μg/kg/day s.c. in two divided doses.

Consider “D-Phe--Cys--Phe-D-Trp--Lys--Thr--Cys--Thr--NH2 [BIM 23012]”, for which the “Potency for growth hormone suppression in vivo, relative to somatostatin 14” value (“Potency … relative to somatostatin 14” for short) with growth hormone release is recorded as 62. Further, the “Intimal/Media Ratio” value in assay [1] (setting [2]) turned out to be 2.3 ± 0.4; in assay [1] (setting [3]), 1.6 ± 0.4. In addition, the “Inhibition of myointimal (smooth muscle cell) proliferation of the carotid artery, in words” value (from here on “Inhibition of myointimal”) in assay [1] is reported as “did not inhibit”.
On to “D-Trp--Lys--Abu--Phe--Me--Ala--Tyr [BIM 23027]”, for which the “Inhibition of growth hormone release, in words” value with growth hormone release (in vivo) is reported as “most potent”. Besides, the “Potency … relative to somatostatin 14” value in the assay with growth hormone release is given as 100. Also, the “Intimal/Media Ratio” value in assay [1] (setting [2]) amounted to 1.6 ± 0.2; in assay [1] (setting [3]), 1.5 ± 0.2. For the same substance, the “Inhibition of myointimal” value in assay [1] is recorded as “did not inhibit”.
For the substance “[Mpa]Y[dW]KVCF-NH2 (cysteine pairing not given here) [BIM 23030]”, the “Potency … relative to somatostatin 14” value in the assay with growth hormone release is given as 0.5. Further, the “Intimal/Media Ratio” value was 1.6 ± 0.2 in assay [1] (setting [2]) and 2.2 ± 0.5 in assay [1] (setting [3]). Moreover, in assay [1], the “Inhibition of myointimal” value is “did not inhibit”.
